Entries after “also recorded” stand apart in the source; their conditions may differ.
What was measured:
[1] = tested on: CsgA fiber formation; assay: CsgA fiber formation, Thioflavin T, confocal microscopy; format: biochemical, Escherichia coli
Method: (§1) CsgA-His6 and CsgG, a lipoprotein that is required for CsgA secretion, were overexpressed in LSR12 (C600::csg). The purification procedure of recombinant CsgA-His6 was performed as previously described with some modifications. The filtrate was incubated with nickel-nitrilotriacetic acid (Ni-NTA) agarose (Invitrogen) for 1 h at 4°C with shaking, centrifuged at 200×g for 5 min and transferred to a polyprep chromatography column (Bio-Rad, Hercules, CA, USA). To confirm protein identity of CsgA-His6, the isolated protein was prepared and subjected to SDS-PAGE as described below, and thereafter the protein was transferred from the gel to a polyvinylidene fluoride (PVDF) membrane (Invitrogen) at 160 mA for 60 min. The band of 15 kDa, corresponding to the molecular weight of CsgA-His6, was excised from the membrane stained with Coomassie Blue and analysed with N-terminal sequence analysis as has been described. Since it has previously been shown that CsgA-His6 has the same polymerizing properties as wild-type CsgA [59], we refer to CsgA-His6 as CsgA.
Recombinant monomeric CsgA was mixed with equimolar LL-37, sLL-37 or VIP and 20 µM ThT, and incubated over night at 37°C, washed twice, and suspended in 10 mM Kpi, pH 7.2 before mounting in ProLong Gold antifade mounting medium (Invitrogen). Images were acquired on a Leica TCS SP5 confocal microscope using a 20× objective. Fluorescence intensity was quantified using ImageJ software. The difference in fluorescence intensity of CsgA with and without peptides was calculated and corrected for the contribution of fluorescence from the peptides themselves.

[2] = tested on: curli-mediated biofilm formation by E. coli; assay: Effect on formation of biofilm, crystal violet microtiter plate; format: cell-based, Escherichia coli
Method: To measure the ability of the bacteria to adhere and to form biofilm a crystal violet assay in polystyrene microtiter plates (Costar, Corning, NY, USA) was performed. Bacteria were grown in Luria-Bertani (LB) broth without salt for 24 h at 37°C without shaking. Biofilm was then stained with crystal violet (3%). The dye was solubilized with ethanol (95%) and the optical density was measured at 570 nm.
Plates were filled with 90 µL bacterial culture of planktonic cells and 10 µL of aqueous solution of LL-37 in the same concentrations as in the susceptibility assay. As control peptides, sLL-37 (Innovagen AB) and VIP [27] with similar structural properties as LL-37 were utilized. The plates were incubated without shaking at 37°C for 20 h. After incubation, the amount of biofilm formed was determined as described above.

[3] = tested on: wild-type curli; assay: Precipitation of LL-37 with wild-type curli, Western blot of supernatant; format: binding, Escherichia coli; details: 0.1 µM LL-37 in PBS with 5 µM wild-type curli, 1 h at 37°C
Method: The cellulose-deficient isogenic mutant of E. coli No. 12 was used to purify wild-type curli, as has been described. Colonies were harvested and suspended in 0.05 M Tris-buffer by using an omnimixer. Bacterial cell debris was discarded by centrifugation at 8000×g for 15 min and curli protein was precipitated by adding 0.1 M MgCl2 and 0.15 M NaCl. The aggregated curli were centrifuged at 16000×g for 15 min, and the pellet was dissolved in 10 mM TRIS, 1 mM EDTA, pH 7.5 with 2% 3-((3-cholamidopropyl)dimethylammonium)-1-propanesulfonate (CHAPS). After incubation for 45 min at 95°C, the solution was centrifuged at 20000×g for 10 min. The pellet containing curli was washed three times with water. Finally, curli were suspended in PBS and used for binding studies with LL-37.
LL-37 (0.1 µM in PBS) was mixed with 5 µM wild-type curli, or 5 µM recombinant polymerized CsgA. As control, the same concentration of LL-37 without curli or CsgA was utilized. The samples were incubated for 1 h at 37°C with shaking and centrifuged for 30 min at 10000×g. An aliquot of the supernatants was analyzed for the presence of LL-37 with Western blot.
Sample preparation and SDS-PAGE was carried out as described above and Western blot was performed as previously described. […]

[4] = molecular target: T1, polymeric CsgA (Escherichia coli, UniProt P28307); assay: Surface plasmon resonance, polymeric CsgA; details: polymeric CsgA immobilized (7000 response units), 0.1 µM peptide, 20 µl/min for 3 min, HBS-EP, Biacore 3000; binding constants not determinable
T1 construct: made in house; host or cells: E. coli LSR12 (C600::csg), co-expressed with CsgG
T1 sequence (P28307 21-151): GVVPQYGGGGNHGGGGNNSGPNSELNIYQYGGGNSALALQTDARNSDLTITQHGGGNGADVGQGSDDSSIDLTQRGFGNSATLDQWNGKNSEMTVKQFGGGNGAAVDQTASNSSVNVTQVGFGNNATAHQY
Method: Binding analysis of LL-37 to both monomeric and polymeric CsgA was performed with surface plasmon resonance (Biacore 3000 instrument; Biacore AB, Uppsala, Sweden). Both monomeric and polymeric CsgA was immobilized on a CM5 sensor chip (Biacore AB) surface by amine coupling. The chip surface was normalized in 70% glycerol and lanes on the chip were activated with injection of 35 µL 0.05 M N-hydroxysuccinimide (NHS)/0.2 M N-ethyl-N′-[3-dimethylamino) propyl]carbodiimide (EDC). Polymeric or monomeric CsgA (1 µM in 10 mM sodium acetate, pH 4.5) was then immobilized on the chip to 7000 response units and 2000 response units, respectively. After immobilization, the lanes were subjected to 60 µL ethanolamine (1 M, pH 8.5) to deactivate remaining activated carboxylic groups. One lane, activated and deactivated, was used as negative control (without addition of CsgA). Standard Biacore HBS-EP (Biacore AB) was utilized as running buffer, and 0.1 µM LL-37, sLL-37 or VIP were injected at 20 µl/min for 3 min. The surface was regenerated after each cycle with 100 mM HCl.

[5] = tested on: recombinant polymerized CsgA; assay: Precipitation of LL-37 with polymerized CsgA, Western blot of supernatant; format: binding, Escherichia coli; details: 0.1 µM LL-37 in PBS with 5 µM recombinant polymerized CsgA, 1 h at 37°C
Method: as §1
LL-37 (0.1 µM in PBS) was mixed with 5 µM wild-type curli, or 5 µM recombinant polymerized CsgA. As control, the same concentration of LL-37 without curli or CsgA was utilized. […] An aliquot of the supernatants was analyzed for the presence of LL-37 with Western blot. […]

[6] = molecular target: T2, CsgA polymerization (Escherichia coli, UniProt P28307); assay: CsgA polymerization, Thioflavin T assay, Tecan plate reader; format: biochemical; details: 20 µM ThT, 37°C
T2 construct: made in house; host or cells: E. coli LSR12 (C600::csg), co-expressed with CsgG
T2 sequence (P28307 21-151): as above
Method: as §1
Purified recombinant monomeric CsgA (10 µM) with or without different concentrations of the peptides LL-37, sLL-37 or VIP was mixed with 20 µM of the fiber-specific fluorescent probe ThT (Sigma-Aldrich). Fluorescence was measured with a Tecan infinite M200 reader (Tecan Nordic AB, Täby, Sweden). The excitation and emission wavelength was 430 and 490 nm, respectively. Measurements were conducted at 37°C every 10 min after shaking the sample for five seconds. Background fluorescence of the peptides themselves was subtracted.

CC[C@H](C)[C@H](NC(=O)[C@H](CCCCN)NC(=O)[C@H](CCC(=O)O)NC(=O)[C@H](CCCCN)NC(=O)[C@H](CO)NC(=O)[C@H](CCCCN)NC(=O)[C@H](CCCNC(=N)N)NC(=O)[C@H](Cc1ccccc1)NC(=O)[C@H](Cc1ccccc1)NC(=O)[C@H](CC(=O)O)NC(=O)CNC(=O)[C@H](CC(C)C)NC(=O)[C@@H](N)CC(C)C)C(=O)NCC(=O)N[C@@H](CCCCN)C(=O)N[C@@H](CCC(=O)O)C(=O)N[C@@H](Cc1ccccc1)C(=O)N[C@@H](CCCCN)C(=O)N[C@@H](CCCNC(=N)N)C(=O)N[C@H](C(=O)N[C@H](C(=O)N[C@@H](CCC(N)=O)C(=O)N[C@@H](CCCNC(=N)N)C(=O)N[C@H](C(=O)N[C@@H](CCCCN)C(=O)N[C@@H](CC(=O)O)C(=O)N[C@@H](Cc1ccccc1)C(=O)N[C@@H](CC(C)C)C(=O)N[C@@H](CCCNC(=N)N)C(=O)N[C@@H](CC(N)=O)C(=O)N[C@@H](CC(C)C)C(=O)N[C@H](C(=O)N1CCC[C@H]1C(=O)N[C@@H](CCCNC(=N)N)C(=O)N[C@H](C(=O)N[C@@H](CCC(=O)O)C(=O)N[C@@H](CO)C(=O)O)[C@@H](C)O)C(C)C)[C@@H](C)CC)C(C)C)[C@@H](C)CC [LL-37]
fluorescence relative to CsgA alone ([1]; CsgA with equimolar peptide (1∶1), 20 µM ThT, 20 h at 37°C, CsgA alone = 1 arbitrary unit, corrected for peptide fluorescence, two experiments): 0.05 arbitrary units
inhibition of CsgA fiber formation versus sLL-37 and VIP ([1]; molar ratio 1∶1, P = 0.007 versus sLL-37 and P = 0.011 versus VIP): significantly stronger than the effect of sLL-37; also recorded: evidently stronger for LL-37
reduction of biofilm formation ([2]; 2.5 µM LL-37, wild-type strain expressing curli and cellulose (data not shown)): more than 80%
reduction of biofilm formation ([2]; 2.5 µM peptide, cellulose-negative, curli-expressing E. coli strain, 37°C, 20 h, two experiments in triplicates): more than 80%
biofilm-inhibitory versus bactericidal concentrations ([2]; qualitative comparison): much lower than bactericidal concentrations
LL-37 in supernatants after precipitation [3]: pronounced decrease of LL-37 in supernatants; also recorded: the levels of LL-37 decreased in the supernatants
binding / association and dissociation by SPR [4]: higher association with CsgA than the control peptides; also recorded: stronger association and lower dissociation rates
LL-37 in supernatants after precipitation [5]: pronounced decrease of LL-37 in supernatants; also recorded: the levels of LL-37 decreased in the supernatants
inhibition of CsgA polymerization (ThT fluorescence) ([6]; 10 µM CsgA with different concentrations of peptide): inhibited by LL-37 in a dose-dependent manner
inhibition of CsgA polymerization (ThT fluorescence) ([6]; 10 µM CsgA, molar ratio 1∶1 (CsgA∶LL-37), excitation 430 nm, emission 490 nm): fiber formation was completely inhibited
